Entries after “also recorded” stand apart in the source; their conditions may differ.
Tested on: isolated mitochondria from skeletal muscle of zebrafish
Assay: Acute oxidative stress and mitochondrial high-resolution respirometry
Assay type: in vivo
Method: Following the stress, fish were divided into controls and treatment groups. […] Fish exposed to the glycine and glucose treatment were incubated in water containing the compound of interest for 2 h at 28° C. at the following doses: 50, 200, 450 μM (Sigma-Aldrich) for glycine; 500 μM and 5 mM (Sigma-Aldrich) for glucose; 450 μM for glycine, arginine and methionine (Sigma-Aldrich). […] After BCA quantification of protein concentration, 150 μg of crude extract were used for high-resolution respirometry quantification. […] Up to three 02k instruments ([…]) were used in parallel. Experiments were performed at 28° C. in modified MiR05 (110 mM sucrose, 0.5 mM EGTA, 3 mM MgCl2, 20 mM taurine, 10 mM KH2PO4, 20 mM HEPES and 0.1% BSA essentially fatty acid free). Respiration of isolated mitochondria was determined using substrate-uncoupler-inhibitor titration (SUIT) protocols (Pesta and […], Methods Mol Biol. 2012; 810:25-58) with modifications. […] CI respiration was calculated as the difference between total respiration (CI+CII) and the addition of CI inhibitor rotenone (0.5 μM); CII respiration was calculated as the difference between inhibited CI respiration and the addition of CII inhibitor malonic acid (5 mM). Total respiration (CI+CII, Tot resp) was assessed as the difference of the respiration in presence of all substrates and the total inhibition of CI and CII.

Row | Compound | Complex I dependent respiration (acute oxidative stress inducer, 3 μM in water for 2 h at 28° C., FIG. 3) | mitochondrial respiration (O2 consumption; Complex I dependent respiration) after acute oxidative stress (adult AB zebrafish, 3 μM menadione 2 h at 28° C., then compound in water 2 h, glycine 50, 200, 450 μM, glucose 500 μM and 5 mM, FIG. 3, n=3 per condition)
1 | CC1=CC(=O)c2ccccc2C1=O [menadione, Menadione, reference compound] | decreasing Complex I dependent respiration | –
2 | NCC(=O)O [glycine] | – | restores respiratory levels; also recorded: able to restore mitochondrial respiration

From patent US20240100006A1, “COMPOSITIONS AND METHODS USING AT LEAST ONE GLYCINE OR DERIVATIVE THEREOF AND AT LEAST ONE LARGE NEUTRAL AMINO ACID AND/OR CATIONIC AMINO ACID OR PRECURSOR THEREOF” (SOCIETE DES PRODUITS NESTLE S.A., priority 2020, published 2024)
